Data taken from US20240317735A1, “HYDROISOQUINOLINE OR HYDRONAPHTHYRIDINE COMPOUNDS FOR THE TREATMENT OF AUTOIMMUNE DISEASE” (Hoffmann-La Roche Inc., priority 2020, published 2024).

Assays:
[1] = target: T1, TLR9 (Homo sapiens, UniProt Q9NR96); test: Human PBMC cell-based assay (CpG ODN 2216 stimulation); parameters: These cells express TLR7, TLR8, or TLR9, and therefore are natural responders to respective ligand stimulation; endogenous in cells; host or cells: human PBMC from healthy donor whole blood; settings: CpG ODN 2216 at 1 μM, overnight, read-out: hPBMC/TLR9 IC50
T1 sequence (Q9NR96 26-1032): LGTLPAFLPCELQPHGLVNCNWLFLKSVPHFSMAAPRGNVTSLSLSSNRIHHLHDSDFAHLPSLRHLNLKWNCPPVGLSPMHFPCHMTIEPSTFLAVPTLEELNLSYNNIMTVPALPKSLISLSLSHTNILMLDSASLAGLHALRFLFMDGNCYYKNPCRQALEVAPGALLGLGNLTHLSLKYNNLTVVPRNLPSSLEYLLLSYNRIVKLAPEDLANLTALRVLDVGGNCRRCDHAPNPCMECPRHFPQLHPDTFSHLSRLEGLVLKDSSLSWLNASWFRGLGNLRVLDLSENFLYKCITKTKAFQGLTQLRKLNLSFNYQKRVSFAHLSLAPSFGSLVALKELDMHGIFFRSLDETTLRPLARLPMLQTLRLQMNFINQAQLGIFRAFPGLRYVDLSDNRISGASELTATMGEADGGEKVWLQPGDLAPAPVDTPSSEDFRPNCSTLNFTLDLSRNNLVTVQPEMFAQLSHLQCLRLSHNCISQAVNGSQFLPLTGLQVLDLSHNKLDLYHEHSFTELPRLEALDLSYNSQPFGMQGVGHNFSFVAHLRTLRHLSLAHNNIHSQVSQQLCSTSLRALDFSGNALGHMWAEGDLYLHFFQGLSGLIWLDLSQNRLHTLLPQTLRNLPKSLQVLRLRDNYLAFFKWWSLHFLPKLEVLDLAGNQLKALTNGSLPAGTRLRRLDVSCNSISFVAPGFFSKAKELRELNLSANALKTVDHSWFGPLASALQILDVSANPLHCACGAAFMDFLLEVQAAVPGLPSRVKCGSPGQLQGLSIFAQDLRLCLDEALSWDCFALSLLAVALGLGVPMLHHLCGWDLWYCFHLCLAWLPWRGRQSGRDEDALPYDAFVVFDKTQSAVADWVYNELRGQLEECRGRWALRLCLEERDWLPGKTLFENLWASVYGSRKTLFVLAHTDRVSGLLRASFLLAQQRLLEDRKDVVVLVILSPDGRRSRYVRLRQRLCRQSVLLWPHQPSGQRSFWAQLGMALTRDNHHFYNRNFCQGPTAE
Text: Unlike the HEK reporter cell lines, human peripheral blood mononuclear cell (PBMC) represents primary human immune cells in blood mainly consisting of lymphocytes, monocytes, and dendritic cells. These cells express TLR7, TLR8, or TLR9, and therefore are natural responders to respective ligand stimulation. Upon activation of these TLRs, PBMCs secrete similar cytokines and chemokines in vitro and in vivo, and therefore the in vitro potency of a TLR7/8/9 antagonist in human PBMC is readily translatable to its pharmacodynamics response in vivo.
Human peripheral blood mononuclear cells (PBMC) were isolated from freshly-drawn lithium-heparinized (Lithium Heparin Plus blood Collection tube, BD Vacutainer®) healthy donor whole blood by density gradient (Ficoll-Paque™ PLUS, GE Healthcare life Sciences). Briefly, 50 mL of blood was diluted with 25 mL PBS (without Ca^2+, Mg^2+) in a 50 mL conical tube with porous barrier (Leucosep tube, Greiner bio-one), where 15.5 mL Ficoll-Paque was under laid after spinning. Tubes were centrifuged for 20 minutes at 800×g (1946 rpm) with the brake in the off position, and PBMC were collected from the buffy coat. Cells were then washed twice in PBS, and red blood cells were lysed by suspension in 2 mL (Red Blood Cell Lysis Buffer, Alfa Aesar) for 5-10 minutes at room temperature. After a final wash in PBS, PBMC were resuspended at a final concentration of 2×10^6 cells/mL in RPMI-1640 media with GlutaMAX™ (Gibco) supplemented with 10% Fetal Bovine Serum (Sigma) and plated at 150 μL/well (3×10^5 cells/well) in tissue culture treated round bottom 96-well plates (Corning Incorporated). Antagonist compounds (compounds of this invention) solubilized and serial diluted in 100% DMSO were added in duplicate to cells to yield a final concentration of 1% DMSO (v/v). PBMC were incubated with antagonist compounds for 30 minutes at 37° C., 5% CO2 before adding various TLR agonist reagents in 48 μL complete media per well as follows (final concentrations indicated): CpG ODN 2216 (InvivoGen) at 1 μM for TLR9, ORN 06/LyoVec (InvivoGen) at […] for TLR8 and R848 (InvivoGen) at 1p g/mL for TLR7 and TLR8. PBMC were incubated overnight at 37° C. with 5% CO2. Cell culture supernatants were collected, and levels of various human cytokines were assessed by Luminex assay (ProcartaPlex™ Multiplex Immunoassay, Invitrogen) or ELISA procedure according to the manufacturer's recommended protocol (eBioscience, ThermoFisher Scientific). Viability of the cells was also checked with Cell Viability Assay (CellTiter Glo®Luminescent Cell Viability Assay, Promega).

[2] = target: T2, hERG channel (Homo sapiens, UniProt Q12809); test: hERG channel inhibition assay (patch-clamp, CHOhERG cells); format: cell-based; settings: for IC50 / IC20: CHOhERG cells, whole-cell patch-clamp; for IC20: human, CHO cells stably expressing hERG (CHOhERG); for hERG IC20/TLR7 IC50 / hERG IC20/TLR8 IC50 / hERG IC20/TLR9 IC50: safety ratio; for hERG IC20/TLR7 IC50: hERG IC20 over HEK/hTLR7 IC50; for hERG IC20/TLR8 IC50: hERG IC20 over HEK/hTLR8 IC50; for hERG IC20/TLR9 IC50: hERG IC20 over HEK/hTLR9 IC50
T2 construct: expressed in transfected cells; host or cells: CHO (CHOhERG)
T2 sequence (Q12809 whole entry): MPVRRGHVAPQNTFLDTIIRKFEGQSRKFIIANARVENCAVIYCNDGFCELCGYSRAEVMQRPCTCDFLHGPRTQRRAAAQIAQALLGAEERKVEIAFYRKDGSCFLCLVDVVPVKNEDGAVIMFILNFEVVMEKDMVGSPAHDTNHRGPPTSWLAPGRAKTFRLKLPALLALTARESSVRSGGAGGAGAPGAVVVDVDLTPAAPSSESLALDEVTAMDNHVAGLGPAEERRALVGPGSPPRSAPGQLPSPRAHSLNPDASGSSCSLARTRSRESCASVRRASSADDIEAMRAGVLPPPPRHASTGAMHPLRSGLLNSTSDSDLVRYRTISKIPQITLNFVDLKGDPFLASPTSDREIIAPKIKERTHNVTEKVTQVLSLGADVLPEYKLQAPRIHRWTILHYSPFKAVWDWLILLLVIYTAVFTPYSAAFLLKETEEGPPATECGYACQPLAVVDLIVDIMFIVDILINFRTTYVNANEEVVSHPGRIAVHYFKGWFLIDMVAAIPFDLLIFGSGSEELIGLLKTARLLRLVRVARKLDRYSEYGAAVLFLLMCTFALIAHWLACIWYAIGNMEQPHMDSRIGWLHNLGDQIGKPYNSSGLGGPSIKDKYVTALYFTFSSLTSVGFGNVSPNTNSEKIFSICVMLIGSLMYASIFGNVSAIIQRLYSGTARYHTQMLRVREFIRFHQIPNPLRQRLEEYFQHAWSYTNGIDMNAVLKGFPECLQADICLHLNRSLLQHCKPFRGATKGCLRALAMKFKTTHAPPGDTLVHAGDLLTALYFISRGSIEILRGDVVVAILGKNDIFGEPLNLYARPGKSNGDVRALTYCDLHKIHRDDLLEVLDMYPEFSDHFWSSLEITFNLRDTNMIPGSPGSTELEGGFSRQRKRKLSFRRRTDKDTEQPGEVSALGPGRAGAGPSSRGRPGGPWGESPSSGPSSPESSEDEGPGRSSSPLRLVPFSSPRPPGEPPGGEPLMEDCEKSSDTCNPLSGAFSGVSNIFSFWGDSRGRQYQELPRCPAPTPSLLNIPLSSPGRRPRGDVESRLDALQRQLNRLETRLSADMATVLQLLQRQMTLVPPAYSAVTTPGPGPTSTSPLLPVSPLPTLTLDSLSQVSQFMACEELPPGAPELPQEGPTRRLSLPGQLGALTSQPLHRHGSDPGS
Procedure: The hERG K^+ channels were cloned in humans and stably expressed in a CHO (Chinese hamster ovary) cell line. CHOhERG cells were used for patch-clamp (voltage-clamp, whole-cell) experiments. Cells were stimulated by a voltage pattern to activate hERG channels and conduct IKhERG currents (rapid delayed outward rectifier potassium current of the hERG channel). After the cells were stabilized for a few minutes, the amplitude and kinetics of IKhERG were recorded at a stimulation frequency of 0.1 Hz (6 bpm). Thereafter, the test compound was added to the preparation at increasing concentrations. For each concentration, an attempt was made to reach a steady-state effect, usually, this was achieved within 3-10 min at which time the next highest concentration was applied. The amplitude and kinetics of IKhERG are recorded in each concentration of the drug which were compared to the control values (taken as 100%). (references: Redfern W S, Carlsson L, Davis A S, Lynch W G, MacKenzie I, Palethorpe S, Siegl P K, Strang I, Sullivan A T, Wallis R, Camm A J, Hammond T G. 2003; Relationships between preclinical cardiac electrophysiology, clinical QT interval prolongation and torsade de pointes for a broad range of drugs: evidence for a provisional safety margin in drug development. Cardiovasc. Res. 58:32-45, Sanguinetti MC, Tristani-Firouzi M. 2006; hERG potassium channels and cardiac arrhythmia. Nature 440:463-469, Webster R, Leishman D, Walker D. 2002; Towards a drug concentration effect relationship for QT prolongation and torsades de pointes. Curr. Opin. Drug Discov. Devel. 5:116-26).

IC50 [1]	SMILES	IC50 [2]	IC20 [2]	hERG IC20/TLR7 IC50 [2]	hERG IC20/TLR8 IC50 [2]	hERG IC20/TLR9 IC50 [2]
0.214 µM	Cc1cc(N2Cc3ccc(OC[C@@H]4CNCCN4)cc3[C@@H](C)C2)c2cnn(C)c2n1 [Example 31, (4R)-2-(1,6-dimethylpyrazolo[3,4-b]pyridin-4-yl)-4-methyl-6-[[(2S)-piperazin-2-yl]methoxy]-3,4-dihydro-1H-isoquinoline]	> 20 µM	8.5 µM	354.2	4250.0	81.0
0.286 µM	C[C@H]1CN(c2ccnc3c2cnn3C)Cc2ccc(OC3CN(C4CCNCC4)C3)cc21 [Example 41, (4R)-4-methyl-2-(1-methylpyrazolo[3,4-b]pyridin-4-yl)-6-[1-(4-piperidyl)azetidin-3-yl]oxy-3,4-dihydro-1H-isoquinoline]	> 20 µM	5.1 µM	728.6	637.5	108.5
0.34 µM	CO[C@H]1CN(c2cc3c(cn2)CN(c2cc(C)nc4c2cnn4C)C[C@@H]3C)CC[C@@H]1N [Example 73, (3S,4S)-3-methoxy-1-[(5R)-7-(1,6-dimethylpyrazolo[3,4-b]pyridin-4-yl)-5-methyl-6,8-dihydro-5H-2,7-naphthyridin-3-yl]piperidin-4-amine]	> 20 µM	6.9 µM	1725.0	3450.0	60.0
